# Experimental data as given in patent US4194006A, “Therapeutic application of acetyl-d,l-carnitine and other acyl derivatives of d,l-carnitine” (priority 1977, dated 1980).
# Like-named read-outs stand apart in the source and are kept apart here.
# How the values were obtained:
# isolated rat atrium = assay: antiarrhythmic effect, isolated rat atrium method of M. Libonati and G. Segre; conditions: Rattus norvegicus
# in vivo = conditions: mouse, in vivo, iv
# Source text: The tolerance of acetyl-d,l-carnitine and of the other aforementioned acyl derivatives of the formula (I), as well as their salts were investigated by comparing the LD50 obtained by administering the compounds intravenously in mice with the LD50 obtained under the same experimental conditions by intravenous injection of d,l-carnitine.
# isolated rabbit hearts [1] = assay: cardiokinetic effect on isolated heart (Langendorff): contractile force after anoxia, positive inotropic effect; conditions: 10 minutes from interruption of anoxic period
# Experimental: (§1) The cardiokinetic effect on isolated heart was also investigated as follows. Rabbit hearts isolated by the Langendorff method were perfused with oxygenized ringer solution at 38.2° C. The isometric contractions, electrocardiogram and coronary flow were recorded using a "Battaglia-Rangoni" polygraph. By removing the oxygen from the perfusion fluid, metabolic damage was induced in the cardia muscle, up to an 80% reduction in the cardiac contractile force.
# (§2) Under these conditions of prolonged anoxia the aerobic glycolysis of the myocardium is slowed down, accompanied by the storage of acid catabolites due to both the accumulation of pyruvic acid and its conversion to lactic acid which cannot be utilized because of the depression of pyridine enzymes, such as LDH (lactodehydrogenase). This has repercussions on the anaerobic glycolysis affecting an ever increasing number of enzymes, accompanied by a progressive and increasingly critical exhaustion of the myocardium. Thus a whole series of cardiac muscle fatigue levels occurs which can be observed by the behavior of the examined parameters, namely the contractile force, coronary flow, heart rate and cardiac rhythm. As soon as the contractile force was reduced by 80%, the perfusion fluid was once again oxygenized either without adding other compounds (controls) or with the addition of the compounds under examination.
# Table 3 below gives the percentage values of the contractile force of the heart, showing a positive inotropic effect, calculated after 10 minutes from the interruption of the anoxic period (myocardial restoration).
# isolated rabbit hearts [2] = assay: coronary vasodilator effect: coronary flow, isolated heart (Langendorff)
# Experimental: as §1, §2
# female rats = assay: antifatigue effect: rota-rod; assay type: in vivo, rat; conditions: Rattus norvegicus, ip, 0.25 h; for responders at 100 mg/kg: read-out: percentage of animals staying on the rota-rod more than 180 seconds, 100 mg/kg i.p.; for responders at 200 mg/kg: read-out: percentage of animals staying on the rota-rod more than 180 seconds, 200 mg/kg i.p.; for responders at 400 mg/kg: read-out: percentage of animals staying on the rota-rod more than 180 seconds, 400 mg/kg i.p.; for responders at 600 mg/kg: read-out: percentage of animals staying on the rota-rod more than 180 seconds, 600 mg/kg i.p.; for responders at 300 mg/kg: read-out: percentage of animals staying on the rota-rod more than 180 seconds, 300 mg/kg i.p.
# Experimental: The antifatigue effect was also examined with the following results. The antifatigue effect was investigated by administering the compounds of the formula (I) according to the present application to female rats intraperitoneally in saline solution and saline solution alone to the controls by the same route. Every 15 minutes (sessions) after treatment, the animals were placed on a 6 cm diameter rod, rotating at 16 r.p.m. The percentage of the animals capable of staying on the rota-rod for a duration of more than 180 seconds was then recorded.
# [3] = read-out: Mean percent variation versus controls: excitability (-%)
# [4] = read-out: Mean percent variation versus controls: frequency max (-%)
# [5] = read-out: Mean percent variation versus controls: refractory period (+%)
# [6] = read-out: Mean percent variation versus controls: rheobase (+%)
# [7] = session 6 (every 15 minutes), * p < 0.05
compound,measurement,setting,value
"CC(=O)OC(CC(=O)[O-])C[N+](C)(C)C (racemic) [acetyl-d,l-carnitine]",inhibition at 0.001 µg/mL,isolated rat atrium; [3],7.18%
same,inhibition at 0.01 µg/mL,isolated rat atrium; [3],18.6%
same,inhibition at 0.1 µg/mL,isolated rat atrium; [3],71%
same,inhibition at 0.001 µg/mL,isolated rat atrium; [4],6.08%
same,inhibition at 0.01 µg/mL,isolated rat atrium; [4],15%
same,inhibition at 0.1 µg/mL,isolated rat atrium; [4],23.6%
same,activation at 0.001 µg/mL,isolated rat atrium; [5],14.5%
same,activation at 0.01 µg/mL,isolated rat atrium; [5],16.8%
same,activation at 0.1 µg/mL,isolated rat atrium; [5],27.4%
same,activation at 0.001 µg/mL,isolated rat atrium; [6],3.32%
same,activation at 0.01 µg/mL,isolated rat atrium; [6],15.3%
same,activation at 0.1 µg/mL,isolated rat atrium; [6],21.7%
same,LD50,in vivo,~770 mg/kg
same,"Contractile force, Mean ± S.E.",isolated rabbit hearts [1]; 1·10^-5 g/lt,77.5 ± 3.29%
same,"Contractile force, Mean ± S.E.",isolated rabbit hearts [1]; 1·10^-6 g/lt,32.5 ± 4.38%
same,"Contractile force, Mean ± S.E.",isolated rabbit hearts [1]; 5·10^-6 g/lt,42.9 ± 6.22%
same,"Coronary flow, Mean ± S.E.",isolated rabbit hearts [2]; 1·10^-5 g/lt,90.05 ± 7.10%
same,"Coronary flow, Mean ± S.E.",isolated rabbit hearts [2]; 1·10^-6 g/lt,75.80 ± 5.92%
same,"Coronary flow, Mean ± S.E.",isolated rabbit hearts [2]; 5·10^-6 g/lt,76.30 ± 11.9%
same,responders at 100 mg/kg,female rats; session 1 (every 15 minutes),0%
same,responders at 100 mg/kg,female rats; session 2 (every 15 minutes),0%
same,responders at 100 mg/kg,female rats; session 3 (every 15 minutes),0%
same,responders at 100 mg/kg,female rats; session 4 (every 15 minutes),0%
same,responders at 100 mg/kg,female rats; session 5 (every 15 minutes),0%
same,responders at 100 mg/kg,female rats; session 6 (every 15 minutes),10%
same,responders at 200 mg/kg,female rats; session 1 (every 15 minutes),0%
same,responders at 200 mg/kg,female rats; session 2 (every 15 minutes),0%
same,responders at 200 mg/kg,female rats; session 3 (every 15 minutes),0%
same,responders at 200 mg/kg,female rats; session 4 (every 15 minutes),30%
same,responders at 200 mg/kg,"female rats; session 5 (every 15 minutes), * p < 0.05",50%
same,responders at 200 mg/kg,female rats; [7],50%
same,responders at 400 mg/kg,female rats; session 1 (every 15 minutes),0%
same,responders at 400 mg/kg,female rats; session 2 (every 15 minutes),10%
same,responders at 400 mg/kg,female rats; session 3 (every 15 minutes),10%
same,responders at 400 mg/kg,female rats; session 4 (every 15 minutes),10%
same,responders at 400 mg/kg,female rats; session 5 (every 15 minutes),40%
same,responders at 400 mg/kg,female rats; [7],50%
same,responders at 600 mg/kg,female rats; session 1 (every 15 minutes),0%
same,responders at 600 mg/kg,female rats; session 2 (every 15 minutes),0%
same,responders at 600 mg/kg,female rats; session 3 (every 15 minutes),10%
same,responders at 600 mg/kg,female rats; session 4 (every 15 minutes),20%
same,responders at 600 mg/kg,female rats; session 5 (every 15 minutes),40%
same,responders at 600 mg/kg,female rats; [7],50%
"CCC(=O)OC(CC(=O)[O-])C[N+](C)(C)C (racemic) [propionyl-d,l-carnitine]",inhibition at 0.001 µg/mL,isolated rat atrium; [3],2.24%
same,inhibition at 0.01 µg/mL,isolated rat atrium; [3],28.4%
same,inhibition at 0.1 µg/mL,isolated rat atrium; [3],14.7%
same,inhibition at 0.001 µg/mL,isolated rat atrium; [4],10.7%
same,inhibition at 0.01 µg/mL,isolated rat atrium; [4],11.4%
same,inhibition at 0.1 µg/mL,isolated rat atrium; [4],7.65%
same,activation at 0.001 µg/mL,isolated rat atrium; [5],8.16%
same,activation at 0.01 µg/mL,isolated rat atrium; [5],14%
same,activation at 0.1 µg/mL,isolated rat atrium; [5],19.3%
same,activation at 0.001 µg/mL,isolated rat atrium; [6],3.57%
same,activation at 0.01 µg/mL,isolated rat atrium; [6],51.3%
same,activation at 0.1 µg/mL,isolated rat atrium; [6],52.1%
same,"Contractile force, Mean ± S.E.",isolated rabbit hearts [1]; 1·10^-5 g/lt,60.1 ± 3.12%
same,"Contractile force, Mean ± S.E.",isolated rabbit hearts [1]; 1·10^-6 g/lt,32.0 ± 5.06%
same,"Contractile force, Mean ± S.E.",isolated rabbit hearts [1]; 5·10^-6 g/lt,38.4 ± 4.86%
same,"Coronary flow, Mean ± S.E.",isolated rabbit hearts [2]; 1·10^-5 g/lt,89.27 ± 7.24%
same,"Coronary flow, Mean ± S.E.",isolated rabbit hearts [2]; 1·10^-6 g/lt,80.61 ± 7.56%
same,"Coronary flow, Mean ± S.E.",isolated rabbit hearts [2]; 5·10^-6 g/lt,78.76 ± 11.03%
same,responders at 300 mg/kg,female rats; session 1 (every 15 minutes),0%
same,responders at 300 mg/kg,female rats; session 2 (every 15 minutes),0%
same,responders at 300 mg/kg,female rats; session 3 (every 15 minutes),0%
same,responders at 300 mg/kg,female rats; session 4 (every 15 minutes),10%
same,responders at 300 mg/kg,female rats; session 5 (every 15 minutes),20%
same,responders at 300 mg/kg,female rats; session 6 (every 15 minutes),40%
same,responders at 400 mg/kg,female rats; session 1 (every 15 minutes),0%
same,responders at 400 mg/kg,female rats; session 2 (every 15 minutes),0%
same,responders at 400 mg/kg,female rats; session 3 (every 15 minutes),10%
same,responders at 400 mg/kg,female rats; session 4 (every 15 minutes),20%
same,responders at 400 mg/kg,female rats; session 5 (every 15 minutes),20%
same,responders at 400 mg/kg,female rats; [7],40%
same,responders at 600 mg/kg,female rats; session 1 (every 15 minutes),0%
same,responders at 600 mg/kg,female rats; session 2 (every 15 minutes),10%
same,responders at 600 mg/kg,female rats; session 3 (every 15 minutes),20%
same,responders at 600 mg/kg,female rats; session 4 (every 15 minutes),30%
same,responders at 600 mg/kg,female rats; session 5 (every 15 minutes),40%
same,responders at 600 mg/kg,female rats; [7],40%
